Results reported in patent US10766884B2 (Pfizer Inc., priority 2018, dated 2020).
pKi: −log10 of the molar value.

Columns and labels:
CDK6/Cyclin D3 = CDK6/Cyclin D3 (Homo sapiens (Human), UniProt Q00534); experiment: CDK6/Cyclin D3 mobility shift assay; type: biochemical; settings: activated CDK6/Cyclin D3, 3.5 mM ATP, Morrison fit; read-out: CDK6_D3 Ki
Description: (§1) The purpose of the CDK6/Cyclin D3 assay is to evaluate the inhibition (% inhibition, Kiapp and Ki values) in the presence of small molecule inhibitors by using a fluorescence based microfluidic mobility shift assay. […] The mobility shift assay electrophoretically separates the fluorescently labeled peptides (substrate and phosphorylated product) following the kinase reaction. Both substrate and product are measured and the ratio of these values is used to generate % conversion of substrate to product by the LabChip EZ Reader.
The reaction was stopped after 95 minutes by the addition of 50 μL of 30 mM EDTA. Ki determinations were made from a plot of the fractional velocity as a function of inhibitor concentration fit to the Morrison equation with the enzyme concentration as a variable.
(§2) For CDK4 and CDK6 mobility shift assays, see also Morrison, J. F. (1969) Kinetics of the reversible inhibition of enzyme-catalysed reactions by tight-binding inhibitors, Biochimica et biophysica acta 185, 269-286; and Murphy, D. J. (2004) Determination of accurate KI values for tight-binding enzyme inhibitors: an in silico study of experimental error and assay design, Analytical biochemistry 327, 61-67.

CDK4/Cyclin D1 = CDK4/Cyclin D1 (Homo sapiens (Human), UniProt P11802); experiment: CDK4/Cyclin D1 mobility shift assay; type: biochemical; settings: activated CDK4/Cyclin D1, 3.5 mM ATP, Morrison fit; read-out: CDK4D1 Ki
Sequence of CDK4/Cyclin D1 (P11802 whole entry): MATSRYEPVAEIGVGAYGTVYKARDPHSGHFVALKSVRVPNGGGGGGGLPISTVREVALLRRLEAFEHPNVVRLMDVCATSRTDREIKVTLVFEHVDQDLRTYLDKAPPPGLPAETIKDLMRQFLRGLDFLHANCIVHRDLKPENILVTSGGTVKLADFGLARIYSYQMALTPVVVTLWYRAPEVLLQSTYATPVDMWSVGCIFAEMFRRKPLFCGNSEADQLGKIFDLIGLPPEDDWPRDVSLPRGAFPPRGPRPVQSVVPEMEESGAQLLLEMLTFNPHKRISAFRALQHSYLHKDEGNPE
Sequence of CDK4/Cyclin D1 (P24385 whole entry partner): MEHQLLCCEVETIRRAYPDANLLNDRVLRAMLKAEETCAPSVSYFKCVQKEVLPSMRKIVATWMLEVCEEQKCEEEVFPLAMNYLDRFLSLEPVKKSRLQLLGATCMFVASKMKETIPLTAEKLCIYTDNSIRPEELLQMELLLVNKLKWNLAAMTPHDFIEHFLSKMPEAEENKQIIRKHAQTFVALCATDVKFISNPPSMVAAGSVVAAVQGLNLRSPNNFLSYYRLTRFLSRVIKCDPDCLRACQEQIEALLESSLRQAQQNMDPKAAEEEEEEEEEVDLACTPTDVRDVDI
Description: as §1, with “CDK4/Cyclin D1” for “of the CDK6/Cyclin D3”, “Conversion” for “conversion”
The reaction was stopped after 195 minutes by the addition of 50 μL of 30 mM EDTA. Ki determinations were made from a plot of the fractional velocity as a function of inhibitor concentration fit to the Morrison equation with the enzyme concentration as a variable.
as §2

Sequence of CDK6/Cyclin D3 (Q00534 whole entry): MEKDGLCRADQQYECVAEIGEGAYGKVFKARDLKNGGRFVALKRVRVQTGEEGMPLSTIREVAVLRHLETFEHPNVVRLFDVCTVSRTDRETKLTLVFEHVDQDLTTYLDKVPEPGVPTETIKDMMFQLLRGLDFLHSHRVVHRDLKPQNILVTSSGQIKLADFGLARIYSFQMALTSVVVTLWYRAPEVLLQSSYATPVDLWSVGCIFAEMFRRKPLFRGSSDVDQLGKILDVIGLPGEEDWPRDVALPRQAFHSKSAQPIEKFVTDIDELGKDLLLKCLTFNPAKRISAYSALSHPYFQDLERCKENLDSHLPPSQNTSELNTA
Sequence of CDK6/Cyclin D3 (P30281 whole entry partner): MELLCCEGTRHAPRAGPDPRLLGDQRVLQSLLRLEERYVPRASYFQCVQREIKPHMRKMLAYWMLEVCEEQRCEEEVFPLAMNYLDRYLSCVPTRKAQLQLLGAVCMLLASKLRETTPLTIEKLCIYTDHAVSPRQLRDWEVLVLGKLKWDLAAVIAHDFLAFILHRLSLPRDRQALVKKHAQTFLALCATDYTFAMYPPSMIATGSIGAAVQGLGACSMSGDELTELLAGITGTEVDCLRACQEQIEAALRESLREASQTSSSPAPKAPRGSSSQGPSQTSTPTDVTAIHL

| SMILES | pKi (CDK6/Cyclin D3) | pKi (CDK4/Cyclin D1) |
| --- | --- | --- |
| CC1OCC(C)n2c1nc1c(F)cc(-c3nc(N[C@@H]4CCOC[C@H]4O)ncc3Cl)cc12 (single isomer, unassigned) [Example A20] | 7.69 |  |
| CC1OCC(C)n2c1nc1c(F)cc(-c3nc(N[C@@H]4CCOC[C@H]4O)ncc3Cl)cc12 (single isomer, unassigned) [Example A21] | 6.87 |  |
| CC(C)n1c(C2CCO2)nc2c(F)cc(-c3nc(N[C@@H]4CCN(S(C)(=O)=O)C[C@H]4O)ncc3Cl)cc21 (single isomer, unassigned) [Example A32] | 8.15 | 9.05 |
| CC1CNCc2nc3c(F)cc(-c4nc(N[C@@H]5CCOC[C@H]5O)ncc4Cl)cc3n21 (single isomer, unassigned) [Example A56, 1,5-anhydro-3-{[5-chloro-4-(9-fluoro-4-methyl-1,2,3,4-tetrahydropyrazino[1,2-a]benzimidazol-7-yl)pyrimidin-2-yl]amino}-2,3-dideoxy-D-threo-pentitol] | 8.02 | 8.89 |
| COC(=O)N1CC[C@@H](Nc2ncc(Cl)c(-c3cc(F)c4ncn(C5CCOC5)c4c3)n2)[C@H](O)C1 (single isomer, unassigned) [Example F02] | 7.40 | 8.37 |
| COC(=O)N1CC[C@@H](Nc2ncc(Cl)c(-c3cc(F)c4ncn(C5CCOC5)c4c3)n2)[C@H](O)C1 (single isomer, unassigned) [Example F03] | 7.58 | 8.57 |
| Cc1nc2c(F)cc(-c3nc(N[C@H]4CCN(C)C[C@@H]4O)ncc3F)cc2n1C(C)C (single isomer, unassigned) [Example F07] | 6.90 | 7.82 |
| CC(C)n1c([C@@H](C)O)nc2c(F)cc(-c3nc(N[C@@H]4CCN(S(C)(=O)=O)C[C@@H]4O)ncc3Cl)cc21 (single isomer, unassigned) [Example F12] |  | 7.30 |
| CN1CCC(Nc2ncc(F)c(-c3cc(F)c4ncn(C(C)(C)C)c4c3)n2)CC1 [Example A03] | 7.76 | 8.40 |
| Cc1nc2c(F)cc(-c3nc(N[C@@H]4CCN(S(C)(=O)=O)C[C@H]4O)ncc3Cl)cc2n1C [Example A08] | 8.32 | 8.96 |
| CN1Cc2nc3c(F)cc(-c4nc(N[C@@H]5CCOC[C@H]5O)ncc4Cl)cc3n2C(C)(C)C1 [Example A22] | 7.30 | 8.49 |
| CC(C)n1c(C(N)=O)nc2c(F)cc(-c3nc(N[C@@H]4CCOC[C@H]4O)ncc3Cl)cc21 [Example A33] | 7.11 | 8.08 |
| CNC(=O)c1nc2c(F)cc(-c3nc(N[C@@H]4CCOC[C@H]4O)ncc3Cl)cc2n1C(C)C [Example A34] | 6.99 | 7.95 |
| Cc1nc2c(F)cc(-c3nc(N[C@@H]4CCNC[C@H]4O)ncc3F)cc2n1C(C)C [Example A37, (3R,4R)-4-({5-fluoro-4-[4-fluoro-2-methyl-1-(propan-2-yl)-1H-benzimidazol-6-yl]pyrimidin-2-yl}amino)piperidin-3-ol] | 7.47 | 8.46 |
| Cc1nc2c(F)cc(-c3nc(N[C@@H]4CCN(S(C)(=O)=O)C[C@H]4O)ncc3Cl)cc2n1[C@@H](C)CN [Example A39, (3R,4R)-4-[(4-{1-[(2S)-1-aminopropan-2-yl]-4-fluoro-2-methyl-1H-benzimidazol-6-yl}-5-chloropyrimidin-2-yl)amino]-1-(methanesulfonyl)piperidin-3-ol] | 7.91 | 8.89 |
| C[C@@H](N)c1nc2c(F)cc(-c3nc(N[C@@H]4CCOC[C@H]4O)ncc3Cl)cc2n1C(C)(C)C [Example A42, 3-[(4-{2-[(1R)-1-aminoethyl]-1-tert-butyl-4-fluoro-1H-benzimidazol-6-yl}-5-chloropyrimidin-2-yl)amino]-1,5-anhydro-2,3-dideoxy-D-threo-pentitol] | 7.26 | 8.22 |
| CC(C)n1c(C2(N)CC2)nc2c(F)cc(-c3nc(N[C@@H]4CCOC[C@H]4O)ncc3Cl)cc21 [Example A43, 3-({4-[2-(1-aminocyclopropyl)-4-fluoro-1-(propan-2-yl)-1H-benzimidazol-6-yl]-5-chloropyrimidin-2-yl}amino)-1,5-anhydro-2,3-dideoxy-D-threo-pentitol] | 7.36 | 8.32 |
| CC1(C)CNCc2nc3c(F)cc(-c4nc(N[C@@H]5CCOC[C@H]5O)ncc4Cl)cc3n21 [Example A46, 1,5-anhydro-3-{[5-chloro-4-(9-fluoro-4,4-dimethyl-1,2,3,4-tetrahydropyrazino[1,2-a]benzimidazol-7-yl)pyrimidin-2-yl]amino}-2,3-dideoxy-D-threo-pentitol] | 7.39 | 8.64 |
| CC(C)n1c([C@@H](C)O)nc2c(F)cc(-c3nc(N[C@@H]4CCNC[C@H]4O)ncc3Cl)cc21 [Example A50, (3R,4R)-4-[(5-chloro-4-{4-fluoro-2-[(1R)-1-hydroxyethyl]-1-(propan-2-yl)-1H-benzimidazol-6-yl}pyrimidin-2-yl)amino]piperidin-3-ol] | 6.96 | 7.77 |
| CC1(n2c(CO)nc3c(F)cc(-c4nc(N[C@@H]5CCOC[C@H]5O)ncc4Cl)cc32)CC1 [Example A63, 1,5-anhydro-3-({5-chloro-4-[4-fluoro-2-(hydroxymethyl)-1-(1-methylcyclopropyl)-1H-benzimidazol-6-yl]pyrimidin-2-yl}amino)-2,3-dideoxy-D-threo-pentitol] | 8.01 | 9.05 |
| CC(C)(F)Cn1c(CO)nc2c(F)cc(-c3nc(N[C@@H]4CCOC[C@H]4O)ncc3Cl)cc21 [Example A64, 1,5-anhydro-3-({5-chloro-4-[4-fluoro-1-(2-fluoro-2-methylpropyl)-2-(hydroxymethyl)-1H-benzimidazol-6-yl]pyrimidin-2-yl}amino)-2,3-dideoxy-D-threo-pentitol] | 7.97 | 8.70 |
| CS(=O)(=O)N1CC[C@@H](Nc2ncc(Cl)c(-c3cc(F)c4nc(CO)n(C5CCC5)c4c3)n2)[C@H](O)C1 [Example A65, (3R,4R)-4-({5-chloro-4-[1-cyclobutyl-4-fluoro-2-(hydroxymethyl)-1H-benzimidazol-6-yl]pyrimidin-2-yl}amino)-1-(methanesulfonyl)piperidin-3-ol] | 8.46 | 9.22 |
| OCc1nc2c(F)cc(-c3nc(N[C@@H]4CCOC[C@H]4O)ncc3Cl)cc2n1C1CC(F)(F)C1 [Example A66, 1,5-anhydro-3-({5-chloro-4-[1-(3,3-difluorocyclobutyl)-4-fluoro-2-(hydroxymethyl)-1H-benzimidazol-6-yl]pyrimidin-2-yl}amino)-2,3-dideoxy-D-threo-pentitol] | 7.26 | 7.92 |
| CC(C)(O)c1nc2c(F)cc(-c3nc(N[C@@H]4CCOC[C@H]4O)ncc3Cl)cc2n1CC(F)F [Example A67, 1,5-anhydro-3-({5-chloro-4-[1-(2,2-difluoroethyl)-4-fluoro-2-(2-hydroxypropan-2-yl)-1H-benzimidazol-6-yl]pyrimidin-2-yl}amino)-2,3-dideoxy-D-threo-pentitol] | 7.81 | 8.85 |
| CCc1cnc(N[C@@H]2CCN(S(C)(=O)=O)C[C@H]2O)nc1-c1cc(F)c2nc(C)n(C(C)C)c2c1 [Example A70, (3R,4R)-4-({5-ethyl-4-[4-fluoro-2-methyl-1-(propan-2-yl)-1H-benzimidazol-6-yl]pyrimidin-2-yl}amino)-1-(methanesulfonyl)piperidin-3-ol] | 6.91 | 7.58 |
| Cc1nc2c(F)cc(-c3nc(N[C@@H]4CCN(S(C)(=O)=O)C[C@H]4O)ncc3Cl)cc2n1C1CC1 [Example A72, (3R,4R)-4-{[5-chloro-4-(1-cyclopropyl-4-fluoro-2-methyl-1H-benzimidazol-6-yl)pyrimidin-2-yl]amino}-1-(methanesulfonyl)piperidin-3-ol] | 8.68 | 9.52 |
| COc1cnc(N[C@@H]2CCN(S(C)(=O)=O)C[C@H]2O)nc1-c1cc(F)c2nc(C)n(C(C)C)c2c1 [Example A82, (3R,4R)-4-({4-[4-fluoro-2-methyl-1-(propan-2-yl)-1H-benzimidazol-6-yl]-5-methoxypyrimidin-2-yl}amino)-1-(methanesulfonyl)piperidin-3-ol] | 7.61 | 8.42 |
| CC(O)c1nc2c(F)cc(-c3nc(N[C@@H]4CCN(S(=O)(=O)C(F)F)C[C@H]4O)ncc3Cl)cc2n1C(C)C (stereo partly drawn) [Example F09, (3R,4R)-4-({5-chloro-4-[4-fluoro-2-(1-hydroxyethyl)-1-(propan-2-yl)-1H-benzimidazol-6-yl]pyrimidin-2-yl}amino)-1-(difluoromethanesulfonyl)piperidin-3-ol] |  | 9.22 |
| CC(C)n1c([C@@H](C)O)nc2c(F)cc(-c3nc(N[C@H]4CCN(S(C)(=O)=O)C[C@@H]4O)ncc3Cl)cc21 [Example F13, (3S,4S)-4-[(5-chloro-4-{4-fluoro-2-[(1R)-1-hydroxyethyl]-1-(propan-2-yl)-1H-benzimidazol-6-yl}pyrimidin-2-yl)amino]-1-(methanesulfonyl)piperidin-3-ol] |  | 7.94 |
